Experiments:
Assay type in all cases: biochemical
[1] = target: JAK2 (Homo sapiens, UniProt O60674); assay: experiment of inhibiting kinase activity (Caliper mobility shift assay), JAK2; conditions: read-out: inhibition rate JAK2; for inhibition at 0.1 µM: at 100 nM; for inhibition at 0.01 µM: at 10 nM
Protocol: (§1) The inhibition rates of tested compounds on JAK1, JAK2, JAK3, TYK2, CDK7, CDK9, EGFR (T790M) and LRRK2 kinases were measured. The test concentrations of the compounds were 10 nM and 100 nM, and the detection was performed by replicate wells. Alternatively, compounds were 3-fold serial diluted from 10 µM for 10 concentrations in replicate wells.
(§2) The inhibitory effects of the compounds on JAK1, JAK2, JAK3, CDK7 and CDK9 kinases were detected by the method of Caliper mobility shift assay. 250 nL of the compound at 100-fold final concentration was transferred to a destination plate 384-well-plate by using a liquid handler Echo 550. A kinase solution at 2.5-fold final concentration was prepared with 1×kinase buffer. 10 µL of the kinase solution with 2.5-fold final concentration was added to compound wells and positive control wells; and 10 µL of 1×kinase buffer was added to negative control wells. The mixture was centrifuged at 1000 rpm for 30 seconds and then incubated at room temperature for 10 minutes. A mixed solution of ATP and kinase substrate at 5/3-fold final concentration was prepared with 1×kinase buffer, and 15 µL of the mixed solution of ATP and substrate at 5/3-fold final concentration was added to start the reaction. The 384-well plate was centrifuged at 1000 rpm for 30 seconds, shaked and mixed evenly, then incubated at room temperature for a corresponding time. 30 µL of stop solution was added to stop the kinase reaction, the mixture was centrifuged at 1000 rpm for 30 seconds, and shaked and mixed evenly. The conversion rate was read by Caliper EZ Reader. The conversion inhibition rate%=(average positive control conversion rate%-sample conversion rate%)/(average positive control conversion rate%-average negative control conversion rate%). Where negative control wells represent the conversion readings of the background well of kinase buffer; and positive control wells represent the conversion readings of wells without compound inhibition. With the log value of concentration as the x axis and the percentage inhibition rate as the y axis, the dose-response curve was fitted by the log (inhibitor) vs. response-variable slope of the analyzing softwar GraphPad Prism 5, and the IC50 values of each compound on enzyme activity were obtained. Calculation formula is as follows: y=Bottom+(Top-Bottom)/(1+10^((LogIC50-x)×hillslope)), where x is logarithm of inhibitor concentration; and Y is % inhibition rate.

[2] = target: T1, JAK3 (Homo sapiens, UniProt P52333); assay: experiment of inhibiting kinase activity (Caliper mobility shift assay), JAK3; conditions: for inhibition at 0.1 µM: at 100 nM; for inhibition at 0.1 µM / inhibition at 0.01 µM: read-out: inhibition rate JAK3; for inhibition at 0.01 µM: at 10 nM
T1 sequence (P52333 1-1124): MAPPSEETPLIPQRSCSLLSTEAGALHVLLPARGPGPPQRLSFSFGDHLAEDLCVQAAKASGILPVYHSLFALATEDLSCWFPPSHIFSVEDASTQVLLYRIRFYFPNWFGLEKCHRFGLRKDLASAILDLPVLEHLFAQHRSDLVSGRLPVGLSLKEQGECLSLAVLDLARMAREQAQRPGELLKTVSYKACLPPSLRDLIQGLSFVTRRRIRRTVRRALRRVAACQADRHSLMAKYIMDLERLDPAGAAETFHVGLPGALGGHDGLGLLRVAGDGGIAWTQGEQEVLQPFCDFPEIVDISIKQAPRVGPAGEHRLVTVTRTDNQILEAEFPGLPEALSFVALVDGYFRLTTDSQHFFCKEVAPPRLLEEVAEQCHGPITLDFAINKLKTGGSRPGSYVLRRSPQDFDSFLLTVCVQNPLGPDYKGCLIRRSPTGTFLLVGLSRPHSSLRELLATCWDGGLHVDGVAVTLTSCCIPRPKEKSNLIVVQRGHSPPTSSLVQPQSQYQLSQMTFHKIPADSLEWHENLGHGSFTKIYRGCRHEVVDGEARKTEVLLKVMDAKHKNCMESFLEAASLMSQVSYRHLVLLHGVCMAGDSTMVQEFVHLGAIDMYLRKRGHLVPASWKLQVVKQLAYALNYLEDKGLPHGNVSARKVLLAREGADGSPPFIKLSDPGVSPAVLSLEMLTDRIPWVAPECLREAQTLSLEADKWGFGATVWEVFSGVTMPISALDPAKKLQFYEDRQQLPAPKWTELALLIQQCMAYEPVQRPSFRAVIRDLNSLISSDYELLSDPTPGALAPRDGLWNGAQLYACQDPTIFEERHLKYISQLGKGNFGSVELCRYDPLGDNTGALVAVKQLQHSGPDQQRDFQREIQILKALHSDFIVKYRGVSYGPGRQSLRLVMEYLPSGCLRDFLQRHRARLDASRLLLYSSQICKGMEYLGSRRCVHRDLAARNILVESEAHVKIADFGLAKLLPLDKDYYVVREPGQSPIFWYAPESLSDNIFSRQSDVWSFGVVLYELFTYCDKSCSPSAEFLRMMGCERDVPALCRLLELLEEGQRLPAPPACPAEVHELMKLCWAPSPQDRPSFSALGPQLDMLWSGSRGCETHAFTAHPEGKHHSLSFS
Protocol: as §1, §2

[3] = target: TYK2 (Homo sapiens, UniProt P29597); assay: experiment of inhibiting kinase activity, TYK2; conditions: read-out: inhibition rate TYK2; for inhibition at 0.1 µM: at 100 nM; for inhibition at 0.01 µM: at 10 nM
Protocol: as §1

[4] = target: CDK7 (Homo sapiens, UniProt P50613); assay: experiment of inhibiting kinase activity (Caliper mobility shift assay), CDK7; conditions: for inhibition at 0.1 µM: at 100 nM; for inhibition at 0.1 µM / inhibition at 0.01 µM: read-out: inhibition rate CDK7; for inhibition at 0.01 µM: at 10 nM
Protocol: as §1, §2

[5] = target: LRRK2 (Homo sapiens, UniProt Q5S007); assay: experiment of inhibiting kinase activity, LRRK2; conditions: for inhibition at 0.1 µM: at 100 nM; for inhibition at 0.1 µM / inhibition at 0.01 µM: read-out: inhibition rate LRRK2; for inhibition at 0.01 µM: at 10 nM; for IC50: kinase activity assay, Table 3
Protocol: as §1

TYK2, sequence (P29597 whole entry): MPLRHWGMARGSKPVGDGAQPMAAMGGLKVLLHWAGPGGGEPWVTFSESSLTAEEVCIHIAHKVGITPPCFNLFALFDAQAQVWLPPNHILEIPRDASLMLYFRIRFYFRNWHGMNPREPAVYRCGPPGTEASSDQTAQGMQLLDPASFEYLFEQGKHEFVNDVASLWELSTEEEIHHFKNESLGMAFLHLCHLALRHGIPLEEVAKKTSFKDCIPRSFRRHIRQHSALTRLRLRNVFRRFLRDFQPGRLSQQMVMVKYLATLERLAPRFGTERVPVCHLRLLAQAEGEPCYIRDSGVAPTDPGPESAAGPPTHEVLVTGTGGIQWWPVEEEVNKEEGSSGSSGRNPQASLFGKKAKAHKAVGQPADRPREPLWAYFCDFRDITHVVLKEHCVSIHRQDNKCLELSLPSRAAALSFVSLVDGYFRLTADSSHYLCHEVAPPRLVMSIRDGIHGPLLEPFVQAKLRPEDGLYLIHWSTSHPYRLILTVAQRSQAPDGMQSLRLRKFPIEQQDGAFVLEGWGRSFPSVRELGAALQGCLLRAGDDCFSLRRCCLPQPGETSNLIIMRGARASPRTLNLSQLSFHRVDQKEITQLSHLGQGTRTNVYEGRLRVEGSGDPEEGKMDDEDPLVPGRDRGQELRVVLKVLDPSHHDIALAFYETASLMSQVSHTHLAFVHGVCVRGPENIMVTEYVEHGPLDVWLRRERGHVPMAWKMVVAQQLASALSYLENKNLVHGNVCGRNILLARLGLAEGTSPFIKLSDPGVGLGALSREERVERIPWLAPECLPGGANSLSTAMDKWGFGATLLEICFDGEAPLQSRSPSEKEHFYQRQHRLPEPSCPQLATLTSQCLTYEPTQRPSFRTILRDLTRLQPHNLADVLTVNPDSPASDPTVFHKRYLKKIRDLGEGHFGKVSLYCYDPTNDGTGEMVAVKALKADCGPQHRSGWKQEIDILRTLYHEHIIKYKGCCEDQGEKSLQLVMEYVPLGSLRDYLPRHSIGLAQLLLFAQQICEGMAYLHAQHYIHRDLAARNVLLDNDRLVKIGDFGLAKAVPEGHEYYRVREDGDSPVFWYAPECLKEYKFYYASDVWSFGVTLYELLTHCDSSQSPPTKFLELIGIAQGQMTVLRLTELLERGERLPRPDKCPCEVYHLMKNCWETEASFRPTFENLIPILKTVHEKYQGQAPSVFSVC
JAK2, sequence (O60674 whole entry): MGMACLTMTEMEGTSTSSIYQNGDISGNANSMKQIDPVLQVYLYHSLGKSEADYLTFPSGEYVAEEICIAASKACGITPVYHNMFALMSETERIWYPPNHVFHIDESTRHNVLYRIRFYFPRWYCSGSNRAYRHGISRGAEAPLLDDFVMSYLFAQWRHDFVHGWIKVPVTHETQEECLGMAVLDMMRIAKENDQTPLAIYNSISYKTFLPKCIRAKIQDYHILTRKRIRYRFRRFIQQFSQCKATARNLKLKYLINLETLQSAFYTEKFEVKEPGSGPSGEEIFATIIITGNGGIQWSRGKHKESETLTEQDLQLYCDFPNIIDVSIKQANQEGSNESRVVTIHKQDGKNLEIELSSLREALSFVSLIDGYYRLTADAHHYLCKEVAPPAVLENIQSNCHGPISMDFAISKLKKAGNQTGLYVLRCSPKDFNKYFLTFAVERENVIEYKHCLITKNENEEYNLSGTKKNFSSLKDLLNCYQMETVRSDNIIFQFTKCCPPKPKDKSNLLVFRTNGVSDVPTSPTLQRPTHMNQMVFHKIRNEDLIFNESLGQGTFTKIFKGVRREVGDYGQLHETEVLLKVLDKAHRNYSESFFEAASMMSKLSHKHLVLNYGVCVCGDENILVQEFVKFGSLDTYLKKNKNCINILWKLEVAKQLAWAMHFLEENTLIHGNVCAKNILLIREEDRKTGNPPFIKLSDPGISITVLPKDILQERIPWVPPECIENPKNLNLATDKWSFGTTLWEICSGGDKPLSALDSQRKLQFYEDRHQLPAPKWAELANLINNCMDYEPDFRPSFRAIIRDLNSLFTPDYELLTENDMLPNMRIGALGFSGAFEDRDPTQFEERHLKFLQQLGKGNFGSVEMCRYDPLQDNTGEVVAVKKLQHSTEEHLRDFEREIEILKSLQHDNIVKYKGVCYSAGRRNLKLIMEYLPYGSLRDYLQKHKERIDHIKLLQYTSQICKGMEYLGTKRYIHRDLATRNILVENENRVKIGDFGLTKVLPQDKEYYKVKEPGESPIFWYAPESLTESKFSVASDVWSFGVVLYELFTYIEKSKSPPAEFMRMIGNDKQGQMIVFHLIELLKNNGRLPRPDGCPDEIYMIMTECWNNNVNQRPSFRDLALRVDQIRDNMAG
LRRK2, sequence (Q5S007 whole entry): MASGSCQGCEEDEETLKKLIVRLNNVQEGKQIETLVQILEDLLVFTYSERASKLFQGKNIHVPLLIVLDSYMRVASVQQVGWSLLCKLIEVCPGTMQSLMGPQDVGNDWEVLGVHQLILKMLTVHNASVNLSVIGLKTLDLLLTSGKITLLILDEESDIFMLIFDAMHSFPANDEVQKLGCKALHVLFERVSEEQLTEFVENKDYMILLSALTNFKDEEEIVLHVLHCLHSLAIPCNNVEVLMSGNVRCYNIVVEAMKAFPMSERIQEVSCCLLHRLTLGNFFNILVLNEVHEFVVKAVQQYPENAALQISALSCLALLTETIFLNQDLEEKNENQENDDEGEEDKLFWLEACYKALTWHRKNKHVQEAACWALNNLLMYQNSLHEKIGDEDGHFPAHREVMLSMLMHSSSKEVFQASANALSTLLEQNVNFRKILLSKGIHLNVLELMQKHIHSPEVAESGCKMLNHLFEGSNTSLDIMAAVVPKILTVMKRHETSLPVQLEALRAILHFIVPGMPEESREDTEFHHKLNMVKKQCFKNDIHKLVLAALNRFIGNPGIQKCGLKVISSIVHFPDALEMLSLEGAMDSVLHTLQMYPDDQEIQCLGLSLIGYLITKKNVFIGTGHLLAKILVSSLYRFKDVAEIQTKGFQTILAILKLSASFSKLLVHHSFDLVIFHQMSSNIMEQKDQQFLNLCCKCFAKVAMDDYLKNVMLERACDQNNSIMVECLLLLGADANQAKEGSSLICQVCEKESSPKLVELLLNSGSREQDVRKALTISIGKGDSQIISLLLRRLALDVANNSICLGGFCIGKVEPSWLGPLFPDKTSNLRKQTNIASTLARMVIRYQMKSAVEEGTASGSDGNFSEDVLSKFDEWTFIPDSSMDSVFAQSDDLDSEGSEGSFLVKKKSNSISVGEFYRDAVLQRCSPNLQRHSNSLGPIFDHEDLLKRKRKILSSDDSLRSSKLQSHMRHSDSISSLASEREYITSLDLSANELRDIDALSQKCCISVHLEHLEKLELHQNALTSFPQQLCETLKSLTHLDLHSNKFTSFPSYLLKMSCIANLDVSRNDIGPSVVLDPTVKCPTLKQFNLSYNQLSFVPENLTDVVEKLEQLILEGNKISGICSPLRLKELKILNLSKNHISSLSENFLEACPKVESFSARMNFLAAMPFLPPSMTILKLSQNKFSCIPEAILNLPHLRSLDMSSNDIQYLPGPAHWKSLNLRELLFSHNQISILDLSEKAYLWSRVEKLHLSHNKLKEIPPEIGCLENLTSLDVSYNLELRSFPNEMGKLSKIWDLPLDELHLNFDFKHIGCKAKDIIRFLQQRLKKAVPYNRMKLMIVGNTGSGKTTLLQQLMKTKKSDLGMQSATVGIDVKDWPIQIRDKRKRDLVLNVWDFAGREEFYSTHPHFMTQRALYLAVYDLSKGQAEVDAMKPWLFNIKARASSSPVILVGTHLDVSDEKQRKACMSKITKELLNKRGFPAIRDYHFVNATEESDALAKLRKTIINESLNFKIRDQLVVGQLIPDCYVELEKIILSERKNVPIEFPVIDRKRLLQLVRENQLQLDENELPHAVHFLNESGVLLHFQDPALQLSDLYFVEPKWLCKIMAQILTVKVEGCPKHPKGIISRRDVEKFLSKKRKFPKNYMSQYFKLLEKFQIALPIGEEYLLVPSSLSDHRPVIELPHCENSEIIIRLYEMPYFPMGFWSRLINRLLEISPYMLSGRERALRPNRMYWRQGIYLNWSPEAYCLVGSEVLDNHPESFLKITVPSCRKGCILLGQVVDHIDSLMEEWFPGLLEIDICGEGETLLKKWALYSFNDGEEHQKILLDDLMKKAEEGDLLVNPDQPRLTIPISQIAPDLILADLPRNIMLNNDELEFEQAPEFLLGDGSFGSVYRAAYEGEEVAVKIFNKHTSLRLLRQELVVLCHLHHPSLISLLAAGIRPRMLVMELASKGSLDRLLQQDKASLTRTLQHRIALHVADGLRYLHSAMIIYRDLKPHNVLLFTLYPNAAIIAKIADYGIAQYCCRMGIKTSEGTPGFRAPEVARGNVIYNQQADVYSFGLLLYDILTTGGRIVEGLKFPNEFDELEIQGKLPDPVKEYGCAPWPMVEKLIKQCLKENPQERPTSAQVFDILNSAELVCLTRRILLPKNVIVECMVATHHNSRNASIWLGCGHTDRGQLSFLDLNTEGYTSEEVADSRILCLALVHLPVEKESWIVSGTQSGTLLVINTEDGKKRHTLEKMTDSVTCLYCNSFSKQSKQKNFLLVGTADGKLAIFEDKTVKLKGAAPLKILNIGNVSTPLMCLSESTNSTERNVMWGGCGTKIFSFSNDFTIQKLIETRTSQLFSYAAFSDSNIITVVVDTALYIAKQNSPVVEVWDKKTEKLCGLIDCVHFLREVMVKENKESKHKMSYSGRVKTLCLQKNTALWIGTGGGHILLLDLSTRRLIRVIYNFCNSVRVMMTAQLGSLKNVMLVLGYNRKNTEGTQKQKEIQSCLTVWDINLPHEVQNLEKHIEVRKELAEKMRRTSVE

inhibition at 0.1 µM [1] [%] | inhibition at 0.1 µM [2] [%] | inhibition at 0.1 µM [3] [%] | inhibition at 0.1 µM [4] [%] | inhibition at 0.1 µM [5] [%] | inhibition at 0.01 µM [1] [%] | inhibition at 0.01 µM [2] [%] | inhibition at 0.01 µM [4] [%] | inhibition at 0.01 µM [5] [%] | IC50 [5] [nM] | inhibition at 0.01 µM [3] [%] | IC50 ([4]; kinase activity assay, Table 3) [nM] | IC50 ([2]; kinase activity assay, Table 3) [nM] | Compound
> 80 | 40 to 79 | 25 to 39 | 40 to 79 | 40 to 79 |  |  |  |  |  |  |  |  | CN1CCOCCOc2cc(Nc3nc(-c4cn(C)c5ccccc45)c4cc[nH]c4n3)ccc2OCC1 [Example 23, 7-methyl-N-(4-(1-methyl-1H-indol-3-yl)-7H-pyrrolo[2,3-d]pyrimidin-2-yl)-2,3,6,7,8,9-hexahydro-5H-benzo[b][1,4,7]trioxa[10]azacyclododecan-13-amine]
40 to 79 |  |  | 40 to 79 | 25 to 39 |  |  |  |  |  |  |  |  | CN1CCOCCOc2cc(Nc3nc(-c4cn(C)c5ccccc45)c4cn[nH]c4n3)ccc2OCC1 [Example 24, 7-methyl-N-(4-(1-methyl-1H-indol-3-yl)-1H-pyrazolo[3,4-d]pyrimidin-6-yl)-2,3,6,7,8,9-hexahydro-5H-benzo[b][1,4,7]trioxa[10]azacyclododecan-13-amine]
 |  |  |  |  | 40 to 79 | 40 to 79 | 25 to 39 | > 80 | < 50 |  |  |  | CC(=O)N1CCOCCOc2cc(Nc3nc(Nc4ccccc4S(=O)(=O)C(C)C)c4cc[nH]c4n3)ccc2OCC1 [Example 98, 1-(13-((4-((2-(isopropylsulfonyl)phenyl)amino)-7H-pyrrolo[2,3-d]pyrimidin-2-yl)amino)-2,3,5,6,8,9-hexahydro-7H-benzo[b][1,4,7]trioxa[10]azacyclododecan-7-yl)ethan-1-one]
 |  |  |  |  | > 80 |  | 25 to 39 |  |  | > 80 |  |  | CN1CCOCCOc2ccc(Nc3ncc(F)c(-c4cnn(C(CC#N)C5CCCC5)c4)n3)cc2OCC1 (stereo not drawn) [Example 42, 3-cyclopentyl-3-(4-(5-fluoro-2-((7-methyl-2,3,6,7,8,9-hexahydro-5H-benzo[b][1,4,7]trioxa[10]azacyclododecan-12-yl)amino)pyrimidin-4-yl)-1H-pyrazol-1-yl)propanenitrile]
40 to 79 | 25 to 39 |  | 40 to 79 | > 80 |  |  |  |  |  |  |  |  | CN1CCOCCOc2cc(Nc3nc(Nc4cccc(S(N)(=O)=O)c4)c4cc[nH]c4n3)ccc2OCC1 [Example 67, 3-((2-((7-methyl-2,3,6,7,8,9-hexahydro-5H-benzo[b][1,4,7]trioxa[10]azacyclododecan-13-yl)amino)-7H-pyrrolo[2,3-d]pyrimidin-4-yl)amino)benzenesulfonamide]
40 to 79 | 25 to 39 |  | > 80 | > 80 |  |  | 40 to 79 | 25 to 39 | < 50 |  | < 50 |  | CC(C)S(=O)(=O)c1ccccc1Nc1nc(Nc2ccc3c(c2)OCCN(C)CCOCCO3)nc2[nH]ncc12 [Example 12, N^4-(2-(isopropylsulfonyl)phenyl)-N^6-(7-methyl-2,3,6,7,8,9-hexahydro-5H-benzo[b][1,4, 7]trioxa[10]azacyclododecan-12-yl)-1H-pyrazolo[3,4-d]pyrimidin-4,6-diamine]
 |  |  |  |  | 40 to 79 | 40 to 79 | > 80 | > 80 |  |  |  |  | CC(C)S(=O)(=O)c1ccccc1Nc1nc(Nc2ccc3c(c2)OCCN(C)CCOCCO3)nc2[nH]ccc12 [Example 53, N^4-(2-(isopropylsulfonyl)phenyl)-N^2-(7-methyl-2,3,6,7,8,9-hexahydro-5H-benzo[b][1,4,7]trioxa[10]azacyclododecan-12-yl)-7H-pyrrolo[2,3-d]pyrimidin-2,4-diamine]
40 to 79 |  |  | 25 to 39 | 40 to 79 |  |  |  |  | < 50 |  |  |  | CN1CCOc2ccc(Nc3nc(-c4cn(C)c5ccccc45)c4cc[nH]c4n3)cc2OCC1 [Example 39, 4-methyl-N-(4-(1-methyl-1H-indol-3-yl)-7H-pyrrolo[2,3-d]pyrimidin-2-yl)-3,4,5,6-tetrahydro-2H-benzo[b][1,4,7]dioxazolin-9-amine]
40 to 79 | 25 to 39 |  | 40 to 79 | > 80 |  |  |  |  | < 50 |  |  |  | CC(C)S(=O)(=O)c1ccccc1Nc1nc(Nc2ccc3c(c2)OCCN(C)CCO3)nc2[nH]ncc12 [Example 36, N^4-(2-(isopropylsulfonyl)phenyl)-N^6-(4-methyl-3,4,5,6-tetrahydro-2H-benzo[b] [1,4,7]dioxazolin-9-yl)-1H-pyrazolo[3,4-d]pyrimidin-4,6-diamine]
40 to 79 | > 80 |  | 40 to 79 | > 80 |  | 25 to 39 |  | > 80 | < 50 |  |  |  | CN1CCOCCOc2cc(Nc3nc(Nc4ccccc4P(C)(C)=O)c4cn[nH]c4n3)ccc2OCC1 [Example 33, dimethyl(2-((6-((7-methyl-2,3,6,7,8,9-hexahydro-5H-benzo[b][1,4,7]trioxa[10]azacyclododecan-13-yl)amino)-1H-pyrazolo[3,4-d]pyrimidin-4-yl)amino)phenyl)phosphine oxide]
> 80 | > 80 | > 80 | 40 to 79 | 40 to 79 | 40 to 79 | 40 to 79 |  |  |  | 25 to 39 |  |  | CC(C)S(=O)(=O)c1ccccc1Nc1nc(Nc2ccc3c(c2)OCCOCCN(C)CCO3)nc2[nH]ncc12 [Example 11, N^4-(2-(isopropylsulfonyl)phenyl)-N^6-(7-methyl-2,3,6,7,8,9-hexahydro-5H-benzo[b][1,4, 7]trioxa[10]azacyclododecan-13-yl)-1H-pyrazolo[3,4-d]pyrimidin-4,6-diamine]
 | > 80 | > 80 | 25 to 39 |  |  |  |  |  |  |  |  | < 50 | CN1CCOc2ccc(Nc3nc(-c4ccc(C(=O)NCC#N)cc4)c4cc[nH]c4n3)cc2OCC1 [Example 2]
